Measurements from US20040242870A1, “Antiviral methods and compounds” (priority 2000, published 2004).

Key:
Type in all cases: cell-based, Human
[1] = system: PBMCs; assay: PBMC viability by Trypan Blue dye exclusion
From the text: Human peripheral blood mononuclear cells from a minimum of 2 donors, that have been blasted with PHA and IL-2, were counted, viability determined by Trypan Blue dye exclusion and mixed in equal ratios. Pooled donors were used to minimize the variability observed between individual donors which results from quantitative and qualitative differences in HIV infection and overall response to the PHA and IL-2 of primary lymphocyte populations. The cells were resuspended at 1×10^6 cells/mL in RPMI 1640 without phenol red supplemented with 15% Fetal Bovine Serum (heat inactivated), 2 mM L-glutamine, 100 U/mL penicillin, 100 μg/mL streptomycin, 10 μg/Ln gentamycin and IL-2 (20 U/mL, R&D Systems, Minneapolis, Minn.). Fifty microliters of cells were then distributed to the inner 60 wells of a 96 well round bottom microtiter culture plate in a standard format developed by the Infectious Disease Research department of Southern Research Institute. Each plate contains cell control wells (cells only), virus control wells (cells plus virus), and experimental wells (drug plus cells plus virus). Alternatively, cells were cultured in T25 cm^2 or T75 cm^2 tissue culture flasks at a starting density of 1×10^6 cells per ml. Serially diluted compounds were added to the microtiter plate or tissue culture flask followed by the appropriate pre-titered strain of HIV-1. For virus replication inhibition experiments the HIV-1 strain RoJo was used. This is a low passage presumable subtype B pediatric isolate with a syncytium inducing (SI) phenotype in MT-2 cells isolated by Southern Research Institute personnel. All samples were assayed in triplicate where possible with an accompanying determination of compound toxicity. The final volume per well in the microtiter plates was 200 μL. The final volume in the tissue culture flask varied depending upon experimental design and flask size. Assays were incubated for 6 days in a humidified atmosphere at 37° C., 5% CO2, after which supernatants were collected, for analysis of RT activity and cell viability by MTS dye reduction. Culture were also examined microscopically, any abnormalities noted, and in the case of tissue culture flasks cell counts and viability determined by Trypan Blue Dye exclusion.
(§1) Experiments were conducted using flow cytometry to assess the effect of the IMG compounds and cannabidiol on induction of apoptosis. Briefly, compound-treated PBMCs were assayed for apoptosis using a BrdU methodology. Table 6 summarizes the effects of the IMG Compounds on cell cycle and cell viability by Trypan Blue Dye exclusion. Table 7 reduces the changes in the cell cycle to a ratio based upon the percent of cells in G2-G1. G2-G1 cells represent transition cells that are in either G2 or G1, that cannot be distinguished based upon DNA content by flow cytometry. […] This ratio cannot be used as a quantitative factor to measure fold-increases or decreases between population, but rather to access trends in the cell cycle.

[2] = system: PBMCs; assay: Cell cycle analysis of PBMCs by flow cytometry
Procedure: Flow cytometry studies were carried out on PHA/IL-2 induced PBMCs treated for 6 days with the various test compounds. Prior to flow cytometry the PBMCs were washed, counted and 1×10^6 cells resuspended in PBS and stained for CD4 or CD8 surface markers using anti-CD4.PE or CD8.PE (both from PharMingen) for 30 min at 4° C. The PBMC were then washed, fixed (Cytofix) and permeabilized (Cytoperm) followed by staining for apoptosis-related DNA damage. Initial experiments used the BrdU Flow Kit from PharMigen (2354KK). This kit with the appropriate software should have yielded percent apoptosis along with the number of cells in each phase of the cell cycle. However, we were not successful with this kit and subsequently used the data to look at only the distribution in the cell cycle of the PBMCs following drug treatment. We were successful in detecting apoptosis in PBMCs with the PharMingen APO-BRDU™ kit (6576KK). Using this kit, we were not able to co-stain for CD4 and CD8 due to the fluorescent tags used in the APO-BRDU™ kit. For both kits, manufacturers instructions were followed for staining and analysis of the samples. Following the appropriate staining protocol the cells were analyzed using a Becton Dickinson (Bedford, Mass.) FACSSort
as §1

[3] = system: PBMCs; assay: PBMC apoptosis by flow cytometry (APO-BRDU kit)
Procedure: Flow cytometry studies were carried out on PHA/IL-2 induced PBMCs treated for 6 days with the various test compounds. Prior to flow cytometry the PBMCs were washed, counted and 1×10^6 cells resuspended in PBS and stained for CD4 or CD8 surface markers using anti-CD4.PE or CD8.PE (both from PharMingen) for 30 min at 4° C. The PBMC were then washed, fixed (Cytofix) and permeabilized (Cytoperm) followed by staining for apoptosis-related DNA damage. Initial experiments used the BrdU Flow Kit from PharMigen (2354KK). […] For both kits, manufacturers instructions were followed for staining and analysis of the samples. Following the appropriate staining protocol the cells were analyzed using a Becton Dickinson (Bedford, Mass.) FACSSort
In another series of experiments, the IG compounds and cannabidiol treated cells were assessed for the induction of apoptosis (see Tables 8 and 9). […] As IL-2 is an essential component for maintaining the health of PHA induced PBMCs, a second focus of these studies focuses on the effect of the compounds in the absence of IL-2.

[4] = IL-2 supplemented media, 50 μM, HIV +
[5] = IL-2 supplemented media, 50 μM, HIV −
[6] = IL-2 supplemented media, 100 μM, HIV +
[7] = IL-2 supplemented media, 100 μM, HIV −
[8] = IL-2 supplemented media, 15 μM, HIV +
[9] = IL-2 supplemented media, 15 μM, HIV −
[10] = IL-2 supplemented media, 30 μM, HIV +
[11] = IL-2 supplemented media, 30 μM, HIV −

## COc1cc(C(C)(C)CCCC(C)C)cc(OC)c1OC [IG-07, 1-(1,1,5Trimethylhexyl)-3,4,5-trimethoxybenzene]
[1]; 5 μM, HIV +
  % Viable Cells: 94%
[1]; 5 μM, HIV −
  % Viable Cells: 92%
[1]; 100 μM, HIV +
  % Viable Cells: 55%
[1]; 100 μM, HIV −
  % Viable Cells: 50%
[2]; 5 μM, HIV +
  % 7-AAD positive per cell cycle phase G0-G1: 89%
  % 7-AAD positive per cell cycle phase G2-G1: 2%
  % 7-AAD positive per cell cycle phase G2-M: 10%
  % of cells in cell cycle phase: 0%
[2]; 5 μM, HIV −
  % 7-AAD positive per cell cycle phase G0-G1: 89%
  % 7-AAD positive per cell cycle phase G2-G1: 2%
  % 7-AAD positive per cell cycle phase G2-M: 6.9%
  % of cells in cell cycle phase: 0%
[2]; 100 μM, HIV +
  % 7-AAD positive per cell cycle phase G0-G1: 95%
  % 7-AAD positive per cell cycle phase G2-G1: 2%
  % 7-AAD positive per cell cycle phase G2-M: 3.1%
  % of cells in cell cycle phase: 1.7%
[2]; 100 μM, HIV −
  % 7-AAD positive per cell cycle phase G0-G1: 94%
  % 7-AAD positive per cell cycle phase G2-G1: 2%
  % 7-AAD positive per cell cycle phase G2-M: 0.2%
  % of cells in cell cycle phase: 6%
[3]; IL-2 deficient media, 50 μM, HIV +
  % Apoptosis: 32.6%
[3]; IL-2 deficient media, 50 μM, HIV −
  % Apoptosis: 27%
[3]; IL-2 deficient media, 100 μM, HIV +
  % Apoptosis: 64%
[3]; IL-2 deficient media, 100 μM, HIV −
  % Apoptosis: 54%
[3]; [4]
  % Apoptosis: 16%
  Fold Change: 1
[3]; [5]
  % Apoptosis: 14.4%
  Fold Change: 1.2
[3]; [6]
  % Apoptosis: 22.5%
  Fold Change: 1.4
[3]; [7]
  % Apoptosis: 22.8%
  Fold Change: 2

## C=C(C)[C@@H]1CCC(C)=C[C@H]1c1c(O)cc(CCCCC)cc1O [Cannabidiol, reference compound]
[1]; 1 μM, HIV +
  % Viable Cells: 94%
[1]; 1 μM, HIV −
  % Viable Cells: 85%
[1]; 25 μM, HIV +
  % Viable Cells: 55%
[1]; 25 μM, HIV −
  % Viable Cells: 86%
[1]; 35 μM, HIV +
  % Viable Cells: 61%
[1]; 35 μM, HIV −
  % Viable Cells: 61%
[2]; 1 μM, HIV +
  % 7-AAD positive per cell cycle phase G0-G1: 94%
  % 7-AAD positive per cell cycle phase G2-G1: 2%
  % 7-AAD positive per cell cycle phase G2-M: 5.7%
  % of cells in cell cycle phase: 0%
[2]; 1 μM, HIV −
  % 7-AAD positive per cell cycle phase G0-G1: 91%
  % 7-AAD positive per cell cycle phase G2-G1: 2%
  % 7-AAD positive per cell cycle phase G2-M: 9.2%
  % of cells in cell cycle phase: 0%
[2]; 25 μM, HIV +
  % 7-AAD positive per cell cycle phase G0-G1: 96%
  % 7-AAD positive per cell cycle phase G2-G1: 2%
  % 7-AAD positive per cell cycle phase G2-M: 0%
  % of cells in cell cycle phase: 4.2%
[2]; 25 μM, HIV −
  % 7-AAD positive per cell cycle phase G0-G1: 96.4%
  % 7-AAD positive per cell cycle phase G2-G1: 2%
  % 7-AAD positive per cell cycle phase G2-M: 0.05%
  % of cells in cell cycle phase: 3.6%
[2]; 35 μM, HIV +
  % 7-AAD positive per cell cycle phase G0-G1: 98%
  % 7-AAD positive per cell cycle phase G2-G1: 2%
  % 7-AAD positive per cell cycle phase G2-M: 0%
  % of cells in cell cycle phase: 2.6%
[2]; 35 μM, HIV −
  % 7-AAD positive per cell cycle phase G0-G1: 95.5%
  % 7-AAD positive per cell cycle phase G2-G1: 2%
  % 7-AAD positive per cell cycle phase G2-M: 0%
  % of cells in cell cycle phase: 4.5%
[3]; [8]
  % Apoptosis: 20.0%
  Fold Change: 1.2
[3]; [9]
  % Apoptosis: 20.5%
  Fold Change: 1.7
[3]; [10]
  % Apoptosis: 74%
  Fold Change: 4.6
[3]; [11]
  % Apoptosis: 22%
  Fold Change: 1.8

## CC(C)=CCCC1(C)CCc2c(O)cc(C(C)(C)CCCC(C)C)cc2O1 (stereo not drawn) [IG-08, 3,4-Dihydro-2-methyl-2-(4-methyl-3-pentenyl)-7-(1,1,5-trimethylhexyl)-2H-1-benzopyran-5-ol]
[1]; 15 μM, HIV +
  % Viable Cells: 94%
[1]; 15 μM, HIV −
  % Viable Cells: 89%
[1]; 30 μM, HIV +
  % Viable Cells: 67%
[1]; 30 μM, HIV −
  % Viable Cells: 62%
[2]; 15 μM, HIV +
  % 7-AAD positive per cell cycle phase G0-G1: 98%
  % 7-AAD positive per cell cycle phase G2-G1: 2%
  % 7-AAD positive per cell cycle phase G2-M: 0.08%
  % of cells in cell cycle phase: 2.4%
[2]; 15 μM, HIV −
  % 7-AAD positive per cell cycle phase G0-G1: 91%
  % 7-AAD positive per cell cycle phase G2-G1: 2%
  % 7-AAD positive per cell cycle phase G2-M: 8.7%
  % of cells in cell cycle phase: 0%
[2]; 30 μM, HIV +
  % 7-AAD positive per cell cycle phase G0-G1: 99%
  % 7-AAD positive per cell cycle phase G2-G1: 2%
  % 7-AAD positive per cell cycle phase G2-M: 0.15%
  % of cells in cell cycle phase: 0.9%
[2]; 30 μM, HIV −
  % 7-AAD positive per cell cycle phase G0-G1: 98%
  % 7-AAD positive per cell cycle phase G2-G1: 2%
  % 7-AAD positive per cell cycle phase G2-M: 0.6%
  % of cells in cell cycle phase: 1%
[3]; IL-2 deficient media, 15 μM, HIV +
  % Apoptosis: 29%
[3]; IL-2 deficient media, 15 μM, HIV −
  % Apoptosis: 18.4%
[3]; IL-2 deficient media, 30 μM, HIV +
  % Apoptosis: 13.8%
[3]; IL-2 deficient media, 30 μM, HIV −
  % Apoptosis: 11.7%
[3]; [8]
  % Apoptosis: 19.3%
  Fold Change: 1.2
[3]; [9]
  % Apoptosis: 17.3%
  Fold Change: 1.2
[3]; [10]
  % Apoptosis: 32.1%
  Fold Change: 2
[3]; [11]
  % Apoptosis: 27.5%
  Fold Change: 2.3
